Paper PMC2783604 (Synapse (New York, N.Y.), 2009)

Legend:
dopamine D3 receptor = dopamine D3 receptor (Macaca mulatta, UniProt F6U709); experiment: radioligand saturation binding by quantitative autoradiography on brain sections
[1] = target: dopamine D3 receptor (rD3) (Rattus norvegicus, UniProt P19020); experiment: radioligand saturation binding
[2] = target: dopamine D3 receptor (hD3) (Homo sapiens, UniProt P35462); experiment: radioligand saturation binding
Sequence of dopamine D3 receptor (hD3) (P35462 whole entry): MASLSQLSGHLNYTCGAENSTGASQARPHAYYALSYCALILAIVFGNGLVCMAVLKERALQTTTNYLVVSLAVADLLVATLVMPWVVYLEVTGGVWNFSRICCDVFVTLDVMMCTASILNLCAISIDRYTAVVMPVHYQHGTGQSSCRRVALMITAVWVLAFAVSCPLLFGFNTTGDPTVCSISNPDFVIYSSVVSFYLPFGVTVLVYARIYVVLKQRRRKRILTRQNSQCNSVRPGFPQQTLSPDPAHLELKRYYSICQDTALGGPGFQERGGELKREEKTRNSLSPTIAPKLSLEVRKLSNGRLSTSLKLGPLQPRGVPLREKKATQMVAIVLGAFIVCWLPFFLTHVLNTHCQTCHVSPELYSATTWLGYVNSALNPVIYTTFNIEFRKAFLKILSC

Sequence of dopamine D3 receptor (rD3) (P19020 whole entry): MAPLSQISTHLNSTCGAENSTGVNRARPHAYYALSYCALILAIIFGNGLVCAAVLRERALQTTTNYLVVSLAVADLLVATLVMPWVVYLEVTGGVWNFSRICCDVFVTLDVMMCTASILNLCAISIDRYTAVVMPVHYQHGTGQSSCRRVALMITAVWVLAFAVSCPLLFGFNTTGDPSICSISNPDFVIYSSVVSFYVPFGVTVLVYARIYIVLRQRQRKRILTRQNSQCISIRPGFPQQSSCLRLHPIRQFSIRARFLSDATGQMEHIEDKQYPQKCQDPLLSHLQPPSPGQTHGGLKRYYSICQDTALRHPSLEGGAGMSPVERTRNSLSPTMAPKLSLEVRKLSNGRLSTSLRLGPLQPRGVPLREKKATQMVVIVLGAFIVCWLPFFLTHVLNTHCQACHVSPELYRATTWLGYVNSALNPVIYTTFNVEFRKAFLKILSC
Sequence of dopamine D3 receptor (F6U709 1-400): as the sequence (P35462 whole entry) above, with S3P, A17V, I101V, A151T, P247R, K281R counted along it

| Kd (dopamine D3 receptor) [nM] | SMILES | Kd [1] [nM] | Kd [2] [nM] |
| --- | --- | --- | --- |
| 1.1 | COc1ccccc1N1CCN(CCCCNC(=O)c2ccc(N(C)C)cc2)CC1 [WC-10, 4-(Dimethylamino)-N-(4-(4-(2-methoxyphenyl)piperazin-1-yl)butyl)benzamide] | – | – |
| – | CCN1CCC[C@H]1CNC(=O)c1c(O)c(Cl)cc(Cl)c1OC [[^3H]raclopride] | 17.1 ± 1.7 | 18 ± 1 |
